Values belong to the molecule of their own block, whether it stands above or below them. Calls of active or inactive are those of the source. No cut-off for these calls is given here.
Assays:
[1] = tested on: VSMC; test: Inhibition of isoproterenol-induced PKA substrate phosphorylation in Wistar rat VSMCs at 10 uM preincubated for 60 mins followed by ISO stimulation and measured upto 30 mins by Western blot analysis; format: cell-based; settings: time 90.0 min
[2] = tested on: VSMC; test: Activation of PKA in isoproterenol-induced Wistar rat VSMCs assessed as fold increase in intracellular cAMP concentration at 10 uM measured 20 mins after ISO stimulation; format: cell-based; settings: filed as activator
[3] = tested on: VSMC; test: Activation of PKA substrate phosphorylation in Wistar rat VSMCs at 10 uM incubated for 60 mins in the presence of IBMX by Western blot analysis; format: cell-based; settings: filed as activator
[4] = tested on: VSMC; test: Activation of PKA substrate phosphorylation in Wistar rat VSMCs at 10 uM incubated for 60 mins by Western blot analysis; format: cell-based; settings: filed as activator
[5] = tested on: VSMC; test: Inhibition of AKT phosphorylation at Ser473 residue in Wistar rat VSMCs at 10 uM measured upto 60 mins by Western blot analysis; format: cell-based
[6] = tested on: VSMC; test: Activation of PKA substrate phosphorylation in isoproterenol-induced Wistar rat VSMCs at 10 uM preincubated for 60 mins followed by isoproterenol stimulation and measured upto 20 mins by Western blot analysis; format: cell-based; settings: filed as activator, time 80.0 min
[7] = molecular target: cAMP-dependent protein kinase (PKA) (Homo sapiens) (UniProt P22694+P17612+P22612); test: Activation of PKA substrate phosphorylation in HEK293 cells incubated for 60 mins by Western blot analysis; format: cell-based; settings: filed as activator
[8] = tested on: B16-F10; test: Activation of PKA substrate phosphorylation in mouse B16-F10 cells incubated for 60 mins by Western blot analysis; format: cell-based; settings: filed as activator
[9] = molecular target: T1, Protein phosphatase 1 regulatory subunit 12A (Rattus norvegicus) (UniProt Q10728); test: Activation of MYTP1 phosphorylation at Ser668 residue in Wistar rat VSMCs at 50 uM incubated for 60 mins by Western blot analysis; format: cell-based; settings: VSMC, filed as activator
T1 sequence (whole entry): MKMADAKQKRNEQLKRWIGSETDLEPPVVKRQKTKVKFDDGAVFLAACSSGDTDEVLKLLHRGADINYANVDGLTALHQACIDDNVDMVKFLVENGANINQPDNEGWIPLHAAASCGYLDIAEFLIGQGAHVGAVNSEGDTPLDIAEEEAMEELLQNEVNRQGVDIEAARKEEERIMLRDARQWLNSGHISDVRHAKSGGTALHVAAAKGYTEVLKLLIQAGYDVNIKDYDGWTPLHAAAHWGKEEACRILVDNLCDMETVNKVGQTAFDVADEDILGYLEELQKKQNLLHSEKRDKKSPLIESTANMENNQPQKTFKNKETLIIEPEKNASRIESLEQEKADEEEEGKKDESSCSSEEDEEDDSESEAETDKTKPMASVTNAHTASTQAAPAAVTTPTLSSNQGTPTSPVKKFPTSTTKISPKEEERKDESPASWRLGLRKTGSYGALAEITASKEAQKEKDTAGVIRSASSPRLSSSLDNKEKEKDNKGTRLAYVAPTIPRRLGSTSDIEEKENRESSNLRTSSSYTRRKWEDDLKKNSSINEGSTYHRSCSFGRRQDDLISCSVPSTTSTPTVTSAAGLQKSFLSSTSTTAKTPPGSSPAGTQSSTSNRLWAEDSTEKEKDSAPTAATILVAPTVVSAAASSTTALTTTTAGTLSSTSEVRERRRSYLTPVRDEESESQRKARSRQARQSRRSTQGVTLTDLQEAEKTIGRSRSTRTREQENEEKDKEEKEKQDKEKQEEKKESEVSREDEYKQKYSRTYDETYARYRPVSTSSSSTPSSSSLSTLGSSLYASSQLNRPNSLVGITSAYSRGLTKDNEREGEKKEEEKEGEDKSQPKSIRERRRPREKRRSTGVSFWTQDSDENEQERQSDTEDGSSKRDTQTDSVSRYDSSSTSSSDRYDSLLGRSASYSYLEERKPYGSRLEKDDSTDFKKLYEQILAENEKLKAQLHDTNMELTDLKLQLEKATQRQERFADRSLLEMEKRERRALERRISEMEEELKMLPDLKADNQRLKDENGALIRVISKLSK

[10] = tested on: VSMC; test: Inhibition of phenylephrine-induced MLC phosphorylation at Ser19 residue in Wistar rat VSMCs at 50 uM preincubated for 60 mins followed by phenylephrine stimulation and measured upto 30 mins by Western blot analysis; format: cell-based; settings: time 90.0 min
[11] = tested on: VSMC; test: Activation of PKA in isoproterenol-induced Wistar rat VSMCs assessed as fold increase in intracellular cAMP concentration at 50 uM measured 20 mins after ISO stimulation relative to isoproterenol; format: cell-based; settings: filed as activator
[12] = tested on: VSMC; test: Activation of PKA substrate phosphorylation in Wistar rat VSMCs incubated for 60 mins by Western blot analysis; format: cell-based; settings: filed as activator, dose 5-50 µM, DDE = dose-dependent effect
[13] = tested on: VSMC; test: Activation of HSP20 phosphorylation in isoproterenol-induced Wistar rat VSMCs at 50 uM preincubated for 60 mins followed by ISO stimulation and measured upto 30 mins by Western blot analysis; format: cell-based; settings: filed as activator, time 90.0 min
[14] = tested on: VSMC; test: Activation of PKA substrate phosphorylation in Wistar rat VSMCs at 10 uM incubated for 60 mins in the presence of LY294002 by Western blot analysis; format: cell-based; settings: filed as activator
[15] = tested on: VSMC; test: Activation of PKA substrate phosphorylation in isoproterenol-induced Wistar rat VSMCs at 50 uM preincubated for 60 mins followed by ISO stimulation and measured upto 30 mins by Western blot analysis; format: cell-based; settings: filed as activator, time 90.0 min
[16] = molecular target: T1, Protein phosphatase 1 regulatory subunit 12A (Rattus norvegicus); test: Activation of MYTP1 phosphorylation at Ser668 residue in phenylephrine-stimulated Wistar rat VSMCs at 50 uM preincubated for 60 mins followed by phenylephrine stimulation and measured upto 30 mins by Western blot analysis; format: cell-based; settings: VSMC, filed as activator, time 90.0 min
[17] = tested on: VSMC; test: Activation of HSP90 phosphorylation in Wistar rat VSMCs at 50 uM incubated for 60 mins by Western blot analysis; format: cell-based; settings: filed as activator
[18] = tested on: VSMC; test: Activation of PKA substrate phosphorylation in Wistar rat VSMCs at 50 uM incubated for 60 mins by Western blot analysis; format: cell-based; settings: filed as activator
[19] = tested on: VSMC; test: Inhibition of isoproterenol-induced AKT phosphorylation at Ser473 residue in Wistar rat VSMCs at 50 uM preincubated for 60 mins followed by ISO stimulation and measured upto 30 mins by Western blot analysis; format: cell-based; settings: time 90.0 min
[20] = Inhibition of recombinant human full length PI3K p110alpha/[…] alpha activity assessed as PIP3 generation using PI(4,5)P2 (PIP2) as substrate incubated for 3 hrs by competitive binding based colorimetric analysis
[21] = molecular target: T1, Protein phosphatase 1 regulatory subunit 12A (Rattus norvegicus); test: Activation of MYTP1 phosphorylation at Ser695 residue in phenylephrine-stimulated Wistar rat VSMCs at 50 uM preincubated for 60 mins followed by phenylephrine stimulation and measured upto 30 mins by Western blot analysis; format: cell-based; settings: VSMC, filed as activator, time 90.0 min
[22] = tested on: VSMC; test: Cytotoxicity against Wistar rat VSMCs assessed as reduction in cell viability at 50 uM incubated for 48 hrs by MTT assay; format: toxicity, cell-based
[23] = tested on: VSMC; test: Inhibition of isoproterenol-induced AKT phosphorylation at Thr308 residue in Wistar rat VSMCs at 50 uM preincubated for 60 mins followed by ISO stimulation and measured upto 30 mins by Western blot analysis; format: cell-based; settings: time 90.0 min
[24] = tested on: VSMC; test: Activation of PKA substrate phosphorylation in Wistar rat VSMCs at 100 uM incubated for 60 mins by Western blot analysis; format: cell-based; settings: filed as activator
[25] = tested on: VSMC; test: Activation of PKA in isoproterenol-induced Wistar rat VSMCs assessed as increase in intracellular cAMP concentration at 100 uM measured 20 mins after ISO stimulation; format: cell-based; settings: filed as activator
[26] = tested on: VSMC; test: Activation of PKA substrate phosphorylation in isoproterenol-induced Wistar rat VSMCs at 100 uM preincubated for 60 mins followed by ISO stimulation and measured upto 30 mins by Western blot analysis; format: cell-based; settings: filed as activator, time 90.0 min

Compound: O=S(=O)(NCCNC/C=C/c1ccc(Br)cc1)c1cccc2cnccc12
inhibition [1]: Active

Compound: O=c1cc(N2CCOCC2)oc2c(-c3ccccc3)cccc12
fold change (FC) [2]: 2
Activity [3]: Active
Activity [4]: Active
inhibition [5]: Active
Activity [6]: Active

Activity [7]: Active
Activity [9]: Active
Activity [16]: Active
IC50 [20]: 6 µM
Activity [21]: Active
Compound: CC[C@H](CC(=O)O)c1c2c(c(O)c3c1O[C@H](C)[C@H](C)C3=O)C=CC(C)(C)O2
Activity [8]: Active
inhibition [10]: Active
fold change (FC) [11]: 2.5
Activity [12]: Dde
Activity [13]: Active
Activity [14]: Active
Activity [15]: Active
Activity [17]: Active
Activity [18]: Active
inhibition [19]: Active
Activity [6]: Active
Activity [22]: 80%
inhibition [23]: Active

Compound: CC(C)Cn1c(=O)n(C)c(=O)c2nc[nH]c21
Activity [24]: Active
Activity [25]: Active
Activity [26]: Active
Activity [6]: Active
